Active and inactive are the calls of the source. No cut-off for these calls is given here.
What was measured:
Dihydrofolate reductase = molecular target: T1, Dihydrofolate reductase (Mycobacterium tuberculosis, UniProt P9WNX1); experiment: Inhibition of recombinant Mycobacterium tuberculosis DHFR expressed in Escherichia coli BL21(DE3) cells using DHF as substrate and NADPH as cofactor by fluorimetric analysis
T1 sequence (P9WNX1 whole entry): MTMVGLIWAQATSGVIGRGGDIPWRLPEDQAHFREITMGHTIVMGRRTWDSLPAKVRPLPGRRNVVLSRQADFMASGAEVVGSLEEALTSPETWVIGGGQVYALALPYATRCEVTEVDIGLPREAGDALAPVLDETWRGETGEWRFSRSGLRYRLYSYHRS

[1] = molecular target: T2, Dihydrofolate reductase (Mycobacterium tuberculosis) (UniProt P9WNX1); experiment: Potency index, ratio of MB872 IC50 to test compound IC50 for recombinant Mycobacterium tuberculosis DHFR expressed in Escherichia coli BL21(DE3) cells using DHF as substrate and NADPH as cofactor by fluorimetric analysis
T2 sequence (whole entry): T1 sequence (P9WNX1 whole entry)

[2] = molecular target: T2, Dihydrofolate reductase (Mycobacterium tuberculosis); experiment: Uncompetitive inhibition of Mycobacterium tuberculosis DHFR assessed as varying Vmax using DHF as substrate and NADPH as cofactor by Michaelis-Menten analysis
[3] = molecular target: T2, Dihydrofolate reductase (Mycobacterium tuberculosis); experiment: Uncompetitive inhibition of Mycobacterium tuberculosis DHFR assessed as constant Km using DHF as substrate and NADPH as cofactor by Michaelis-Menten analysis
[4] = molecular target: T2, Dihydrofolate reductase (Mycobacterium tuberculosis); experiment: Potency index, ratio of trimethoprim IC50 to test compound IC50 for recombinant Mycobacterium tuberculosis DHFR expressed in Escherichia coli BL21(DE3) cells using DHF as substrate and NADPH as cofactor by fluorimetric analysis

Row | SMILES | IC50 (Dihydrofolate reductase) [µM] | Ratio IC50 [1] | further results
1 | O=C(O)c1ccc(COc2ccccc2)cc1 | 442 | – | –
2 | COc1ccc(OCc2cccc(C(=O)O)c2)cc1 | 119 | – | –
3 | O=C(O)c1cccc(CSc2ccccc2)c1 | 128 | – | –
4 | O=C(O)c1cccc(COc2ccccc2)c1 | ≥ 500 | – | –
5 | c1ccc(OCc2cccc(-c3nnn[nH]3)c2)cc1 | 454 | – | –
6 | COC(=O)c1cccc(COc2ccc([N+](=O)[O-])cc2)c1 | 35 | 13 to 21 | –
7 | O=C(O)c1cccc(COc2ccc([N+](=O)[O-])cc2)c1 | 23 | 13 to 21 | –
8 | COC(=O)c1cccc(COc2ccc(OC)cc2)c1 | 242 | – | –
9 | O=C(O)c1cccc(COc2ccc(O)cc2)c1 | 36 | 13 to 21 | –
10 | COC(=O)c1cccc(OCc2ccccc2)c1 | > 500 | – | –
11 | COC(=O)c1cccc(-n2cc(COc3ccccc3)nn2)c1 | 81 | – | –
12 | O=C(O)c1cccc(CNc2ccccc2)c1 | 7 | 71 | inhibition [2]: Active; inhibition [3]: Active; Ratio IC50 [4]: 13
13 | COC(=O)c1cccc(COc2ccccc2)c1 | > 500 | – | –
14 | COC(=O)c1ccc(COc2ccccc2)cc1 | 152 | – | –
15 | O=C(O)c1cccc(OCc2ccccc2)c1 | 230 | – | –
16 | COC(=O)c1cccc(CSc2ccccc2)c1 | 76 | – | –
17 | COc1ccc(OCc2ccc(C(=O)O)cc2)cc1 | 31 | 19 | –
18 | O=C(O)c1cccc(-n2cc(COc3ccccc3)nn2)c1 | > 500 | – | –
19 | COC(=O)c1ccc(COc2ccc(OC)cc2)cc1 | 26 | 16 | –
